Tests used:
[1] = molecular target: VR (Homo sapiens, UniProt Q8NER1); conditions: typical value, background section; cited from earlier work
[2] = molecular target: T1, human capsaicin receptor (Homo sapiens, UniProt Q8NER1); test: Calcium mobilization assay, determination of antagonist activity (Example 6); format: cell-based; conditions: cells expressing human capsaicin receptor, capsaicin-induced fluorescence response; read-out: IC50
T1 construct: pBK-CMV expression construct encoding the full length human capsaicin receptor; expressed in transfected cells
Experimental: A cDNA encoding full length human capsaicin receptor (SEQ ID NO:1, 2 or 3 of U.S. Pat. No. 6,482,611) is subcloned in the plasmid pBK-CMV (Stratagene, La Jolla, Calif.) for recombinant expression in mammalian cells.
Human embryonic kidney (HEK293) cells are transfected with the pBK-CMV expression construct encoding the full length human capsaicin receptor using standard methods. The transfected cells are selected for two weeks in media containing G418 (400 μg/ml) to obtain a pool of stably transfected cells. Independent clones are isolated from this pool by limiting dilution to obtain clonal stable cell lines for use in subsequent experiments.
Cells transfected with expression plasmids (as described in Example 4) and thereby expressing human capsaicin receptor are seeded and grown to 70-90% confluency in FALCON black-walled, clear-bottomed 96-well plates (#3904, BECTON-DICKINSON, Franklin Lakes, N.J.). The culture medium is emptied from the 96 well plates and FLUO-3 AM calcium sensitive dye (Molecular Probes, Eugene, Oreg.) is added to each well (dye solution: 1 mg FLUO-3 AM, 440 μl DMSO and 440 μl 20% pluronic acid in DMSO diluted 1:250 in Krebs-Ringer HEPES (KRH) buffer (25 mM HEPES, 5 mM KCl, 0.96 mM NaH2PO4, 1 mM MgSO4, 2 mM CaCl2, 5 mM glucose, 1 mM probenecid, pH 7.4), 50 μl diluted solution per well). Plates are covered with aluminum foil and incubated at 37° C. for 1-2 hours in an environment containing 5% CO2. After the incubation, the dye is emptied from the plates, and the cells are washed once with KRH buffer, and resuspended in KRH buffer.
To measure the ability of a test compound to agonize or antagonize a calcium mobilization response in cells expressing capsaicin receptors to capsaicin or other vanilloid agonist, the EC50 of the agonist capsaicin is first determined. An additional 20 μl of KRH buffer and 1 μl DMSO is added to each well of cells, prepared as described above. 100 μl capsaicin in KRH buffer is automatically transferred by the FLIPR instrument to each well. Capsaicin-induced calcium mobilization is monitored using either FLUOROSKAN ASCENT (Labsystems; Franklin, Mass.) or FLIPR (fluorometric imaging plate reader system; Molecular Devices, Sunnyvale, Calif.) instruments. Data obtained between 30 and 60 seconds after agonist application are used to generate an 8-point concentration response curve, with final capsaicin concentrations of 1 nM to 3 μM. KALEIDAGRAPH software (Synergy Software, Reading, Pa.) is used to fit the data to the equation: y=a*(1/(1+(b/x)^c)) to determine the 50% excitatory concentration (EC50) for the response. In this equation, y is the maximum fluorescence signal, x is the concentration of the agonist or antagonist (in this case, capsaicin), a is the Emax, b corresponds to the EC50 value and c is the Hill coefficient. Determination of Agonist Activity
Test compounds are dissolved in DMSO, diluted in 20 μl KRH buffer so that the final concentration of test compounds in the assay well is between 1 μM and 5 μM, and added to cells prepared as described above. The 96 well plates containing prepared cells and test compounds are incubated in the dark, at room temperature for 0.5 to 6 hours. It is important that the incubation not continue beyond 6 hours. Just prior to determining the fluorescence response, 100 μl capsaicin in KRH buffer at twice the EC50 concentration determined as described above is automatically added by the FLIPR instrument to each well of the 96 well plate for a final sample volume of 200 μl and a final capsaicin concentration equal to the EC50. The final concentration of test compounds in the assay wells is between 1 μM and 5 μM. […] The concentration of antagonist required to provide a 50% decrease, relative to the response observed in the presence of capsaicin and without antagonist, is the IC50 for the antagonist, and is preferably below 1 micromolar, 100 nanomolar, 10 nanomolar or 1 nanomolar.

T1 sequence (Q8NER1 whole entry): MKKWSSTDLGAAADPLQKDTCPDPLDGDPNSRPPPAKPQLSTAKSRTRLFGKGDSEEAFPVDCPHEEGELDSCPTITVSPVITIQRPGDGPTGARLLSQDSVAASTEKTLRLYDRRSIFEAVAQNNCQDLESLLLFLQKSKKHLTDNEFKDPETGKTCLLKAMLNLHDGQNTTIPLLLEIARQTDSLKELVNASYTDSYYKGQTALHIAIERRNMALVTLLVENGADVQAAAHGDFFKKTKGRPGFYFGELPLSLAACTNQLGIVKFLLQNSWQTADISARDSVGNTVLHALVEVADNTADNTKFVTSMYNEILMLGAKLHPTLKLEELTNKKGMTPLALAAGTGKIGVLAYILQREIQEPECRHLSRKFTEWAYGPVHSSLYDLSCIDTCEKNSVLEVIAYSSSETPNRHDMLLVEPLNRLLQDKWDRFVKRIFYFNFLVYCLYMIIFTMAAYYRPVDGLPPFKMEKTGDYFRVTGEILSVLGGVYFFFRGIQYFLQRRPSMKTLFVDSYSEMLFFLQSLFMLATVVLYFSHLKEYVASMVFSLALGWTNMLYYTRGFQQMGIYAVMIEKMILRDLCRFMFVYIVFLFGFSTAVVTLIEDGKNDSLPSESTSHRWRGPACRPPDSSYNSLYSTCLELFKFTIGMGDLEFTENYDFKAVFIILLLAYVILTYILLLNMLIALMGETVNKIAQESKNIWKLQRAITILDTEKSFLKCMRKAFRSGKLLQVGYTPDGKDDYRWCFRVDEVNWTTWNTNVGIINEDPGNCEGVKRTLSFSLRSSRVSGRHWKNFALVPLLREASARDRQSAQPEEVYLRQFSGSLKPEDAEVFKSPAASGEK
Chain of VR (Q8NER1 whole entry): as above

Row | Compound | IC50 [2] [nM] | Ki [1] [nM]
1 | Cl.Cl.Cl.Cl.Cl.Cl.N.N.N.N.N.N.N.N.N.N.N.N.N.N.[O-2].[O-2].[Ru+3].[Ru+3].[Ru+4] [ruthenium red] |  | ≥ 140000
2 | CCn1cnc2c(=O)n(-c3ccc(F)cc3)c(CC(C)CC(F)(F)F)nc21 (centres unmarked) [Compound 13, 9-ethyl-1-(4-fluorophenyl)-2-(4,4,4-trifluoro-2-methylbutyl)-1,9-dihydro-6H-purin-6-one] | ≤ 100 | 

The next lines start with results.

Row | IC50 [2] [nM] | Compound | Ki [1] [nM]
3 | ≤ 100 | CCn1cnc2c(=O)n(-c3ccc(Cl)cc3)c(CCC(C)C(F)(F)F)nc21 (centres unmarked) [Compound 16, 1-(4-chlorophenyl)-9-ethyl-2-(4,4,4-trifluoro-3-methylbutyl)-1,9-dihydro-6H-purin-6-one] | 
4 | ≤ 100 | CCn1cnc2c(=O)n(-c3ccc(F)cc3)c(CC(C)C(F)(F)F)nc21 (centres unmarked) [Compound 10, 9-ethyl-1-(4-fluorophenyl)-2-(3,3,3-trifluoro-2-methylpropyl)-1,9-dihydro-6H-purin-6-one] | 
5 | ≤ 100 | CC(CCc1nc2c(ncn2CC(F)(F)F)c(=O)n1-c1ccc(Cl)cc1)C(F)(F)F (centres unmarked) [Compound 25, 1-(4-chlorophenyl)-9-(2,2,2-trifluoroethyl)-2-(4,4,4-trifluoro-3-methylbutyl)-1,9-dihydro-6H-purin-6-one] | 
